According to paper PMC2576352, “The V1-V3 region of a brain-derived HIV-1 envelope glycoprotein determines macrophage tropism, low CD4 dependence, increased fusogenicity and altered sensitivity to entry inhibitors” (Retrovirology, 2008):

T1: N40, biotinylated HR1-derived peptide (HIV-1, biotin on the amino terminus)
T1 construct: peptide derived from the heptad repeat 1 (HR1) region of HIV-1 gp41; Held on a streptavidin SA chip by its biotin; also called HR1-based peptide; source: synthetic peptide, custom synthesized
T1 peptide: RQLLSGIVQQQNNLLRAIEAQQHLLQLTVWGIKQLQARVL


How the values were obtained:
[1] = system: pseudotypes containing wild-type, chimeric and mutant Env; assay: Inhibition of pseudotype infection by entry/fusion inhibitors, Env panel; type: cell-based, HIV-1; conditions: all pseudotypes; data not shown
Description: To produce Env-pseudotyped, luciferase-reporter viruses, 293T cells were co-transfected using calcium phosphate precipitation (ProFection Mammalian Transfection System, Promega, Madison, WI) with each Env expression vector and with the Env-deficient, pNL4-3-luc^+env^- provirus, developed by N. Landau by introducing a frameshift mutation in the env gene of pNL4-3-luc^+ [87]. Culture supernatants containing the pseudotyped particles were collected 48–72 hours after transfection, clarified by centrifugation, aliquoted and stored at -80°C until use. Pseudotype particles lacking envelope glycoproteins, which are generated by co-transfecting the luciferase HIV-1 pro-viral backbone with an empty expression vector, are used as negative control for all pseudotype infections. Pseudotype stocks were quantitated using a p24^gag antigen capture ELISA (SAIC-National Cancer Institute) and normalized amounts of stocks were used to infect target cells for 5–6 hours at 37°C. At 2–3 days post-infection, the cells were washed with PBS and lysed, and the amount of entry mediated by each Env was measured by detecting luciferase activity (Luciferase Assay System, Promega) in a microplate luminometer (GloMax, Promega), following manufacturer's instructions. Results are obtained as relative light units (RLU) per second. […]
Inhibition curves obtained by plotting the relative infection (expressed as a percent of untreated) versus the concentration of the inhibitor were analyzed by non-linear regression with a sigmoidal dose-response model (variable slopes) using GraphPad Prism software, version 4.02 (GraphPad Software, San Diego, CA); this analysis uses a four parameter logistic equation, Y = Bottom + (Top-Bottom)/( 1+10^((log10IC50−X)⋅Slope) ) where Y is the response, Bottom is 0 and Top is 100, X is the logarithm of the concentration, and Slope is the slope of the curve. […] Fusogenicity data were analyzed by non-linear regression with a one-phase exponential model (using GraphPad Prism) that uses the equation Y=Ymax(1-e^(-kX)), where Ymax is the maximum response and k is the observed rate. […]

[2] = system: brain-derived Env versus spleen-derived Env; conditions: cited from earlier work
Excerpt: We and others have investigated whether viruses or Env with these particular phenotypes are present among primary isolates in the brain/CNS of HIV-1-infected individuals. In this sense, Peters et al. have reported that the macrophage tropism of brain-derived Env seems to correlate with reduced sensitivity to inhibition by an anti-CD4 mAb but not by CCR5 antagonists or gp41-targeting antibodies or fusion inhibitor peptides. […] We hypothesized that the brain gp120 would contain the determinants for low CD4 dependence and higher avidity for CD4, while gp41 could likely play a role in the increased fusogenicity and reduced sensitivity to fusion inhibitors. In the present study, we have used chimeric and ...

[3] = target: T1, N40, biotinylated HR1-derived peptide; assay: SPR; Biacore 3000; biotinylated N40 held on a streptavidin SA chip, N40scr surface as reference; T-1249 and T-1249-BR at 81–650 nM passed over at 25 µl/min, 25°C; 25 mM Tris-HCl, 150 mM NaCl, pH 7.4, 8% DMSO; conditions: both partners purified

Row | Molecule | binding result [3] | further results
1 | YTNLIYNLIEKSQNQQEMNEQELLKLDTWASLWNWF [T-20-BR, T-20-derived peptide with amino acid changes present in HR2 region of brain-derived env clones] | – | inhibition of pseudotype infection [1]: very similar inhibition
2 | Cc1ccc(-c2ccc3c(c2)C=C(C(=O)Nc2ccc(C[N+](C)(C)C4CCOCC4)cc2)CCC3)cc1.[Cl-] [TAK-779] | – | sensitivity of brain-derived Env to CCR5 inhibitor [2]: absence of differences in sensitivity
3 | WQEWEQKITALLEQAQIQQEKNEYELQKLDKWASLWEWF (also called parental T-1249; HR2-derived peptide; source: synthetic peptide, custom synthesized (BioSynthesis, Inc.)) [T-1249] | binds | –
4 | WQEWEQKITALLEQAQIQQEMNEQELQKLDTWASLWEWF (T-1249 with three amino acid changes (printed in bold) that are present in the HR2 region of the H0002GH brain-derived env clones; also called modified T-1249-BR; HR2-derived peptide; source: synthetic peptide, custom synthesized (BioSynthesis, Inc.)) [T-1249-BR] | binds | –
